Data taken from the supplement of paper PMC10627819.

Legend:
[1] = test system: S. aureus Newman; assay: Bliss interaction score (quartile over a dose matrix) (fitness difference); higher = more antagonism (negative = synergy)
Outline: (§1)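 Fitness was derived from optical density at entry into stationary phase, divided by the robust mean of the no-drug wells on the same plate. That reading was taken as OD595, and the ratio was capped at 1. Single-drug fitness was inferred from the combination data. The Bliss score, observed fitness minus the expected product of single-drug fitness, was summarised as quartiles over technical, biological and donor/recipient replicates.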

[2] = test system: B. subtilis 168; assay: as above
Outline: as §1

[3] = test system: S. pneumoniae D39V; assay: as above
Outline: as §1

[4] = test system: S. aureus DSM 20231; assay: as above
Outline: as §1

[5] = test system: B. subtilis 168; assay: fitness (endpoint OD595 vs no drug) (fraction); higher = more growth
Outline: (§2)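 Fitness was measured as bacterial growth in 384-well plates inoculated at OD595 0.01 (30 µl, or 55 µl for S. pneumoniae). Media were TSB, LB Lennox or CY, at 37 °C. OD595 was read every 30 min for 14 h and background-subtracted against the first reading. Fitness is OD595 at the transition into stationary phase divided by the robust mean of no-drug control wells, capped at 1.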

[6] = test system: S. pneumoniae D39V; assay: as above
Outline: as §2
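For Bliss interaction score (quartile over a dose matrix) in this document: first quartile when negative (synergy) and third quartile when positive (antagonism).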

CCC[C@@H]1C[C@@H](C(=O)N[C@@H]([C@H]2O[C@H](SC)[C@H](O)[C@@H](O)[C@H]2O)[C@@H](C)O)N(C)C1 [Lincomycin] + CN[C@@H]1[C@H](O[C@H]2[C@H](O[C@H]3[C@H](O)[C@@H](O)[C@H](N=C(N)N)[C@@H](O)[C@@H]3N=C(N)N)O[C@@H](C)[C@]2(O)C=O)O[C@@H](CO)[C@H](O)[C@H]1O [Streptomycin]
Conditions | Bliss interaction score
[1] | 0.0761
[2] | 0.105
[3] | -0.129
[4] | -0.107

fitness
Conditions | first compound 0.1 µg/mL | first compound 0.2 µg/mL | first compound 0.215 µg/mL | first compound 0.4 µg/mL | first compound 0.43 µg/mL | first compound 0.8 µg/mL | first compound 0.86 µg/mL
[5], partner 2 µg/mL | 0.935 | 0.913 | – | 0.9 | – | – | –
[5], partner 8 µg/mL | – | – | – | 0.0442 | – | – | –
[6], partner 2 µg/mL | – | – | 0.768 | – | 0.681 | – | 0.231
[6], partner 4 µg/mL | – | 0.699 | 0.784 | 0.627 | 0.686 | 0.305 | 0.284
[6], partner 8 µg/mL | – | 0.588 | 0.796 | 0.539 | 0.667 | 0.203 | 0.195

fitness, [6], one replicate
Conditions | first compound 0.2 µg/mL | first compound 0.4 µg/mL | first compound 0.8 µg/mL
partner 2 µg/mL | 0.759 | 0.7 | 0.421
partner 16 µg/mL | 0.509 | 0.369 | 0.0724

COc1c(N2C[C@@H]3CCCN[C@@H]3C2)c(F)cc2c(=O)c(C(=O)O)cn(C3CC3)c12 [Moxifloxacin] + CCC(C)C1C(=O)NC(=C)C(=O)NC(C(=O)NC(CSCC(C(=O)N1)NC(=O)/C(=C/C)/NC(=O)C(C(C)CC)N)C(=O)NC2C(SCC(NC(=O)CNC(=O)C3CCCN3C2=O)C(=O)NC(CCCCN)C(=O)NC4C(SCC(NC(=O)CNC(=O)C(NC(=O)C(NC(=O)C(NC(=O)CNC4=O)C)CC(C)C)CCSC)C(=O)NC(CC(=O)N)C(=O)NC(CCSC)C(=O)NC(CCCCN)C(=O)NC5C(SCC6C(=O)NC(C(=O)NC(CSC(C(C(=O)N6)NC(=O)C(NC5=O)C)C)C(=O)NC(CO)C(=O)NC(C(C)CC)C(=O)NC(CC7=CN=CN7)C(=O)NC(C(C)C)C(=O)NC(=C)C(=O)NC(CCCCN)C(=O)O)CC8=CN=CN8)C)C)C)CC(C)C [Nisin]
main component drawn
Conditions | Bliss interaction score
[1] | -0.0568
[2] | 0.0196
[3] | 0.116
[4] | 0.0667

main component drawn
Conditions | fitness
[5], first compound 0.0312 µg/mL, partner 0.5 µg/mL | 0.0551
[5], first compound 0.0312 µg/mL, partner 1 µg/mL | 0.0324
[5], first compound 0.0312 µg/mL, partner 2 µg/mL | 0.0208
[5], first compound 0.0625 µg/mL, partner 0.5 µg/mL | 0.0449
[5], first compound 0.0625 µg/mL, partner 1 µg/mL | 0.0306
[5], first compound 0.0625 µg/mL, partner 2 µg/mL | 0.022
[5], first compound 0.125 µg/mL, partner 0.5 µg/mL | 0.0446
[5], first compound 0.125 µg/mL, partner 1 µg/mL | 0.0343
[5], first compound 0.125 µg/mL, partner 2 µg/mL | 0.0231
[6], first compound 0.0037 µg/mL, partner 0.4275 µg/mL | 0.993
[6], first compound 0.0037 µg/mL, partner 0.855 µg/mL | 0.986
[6], first compound 0.0037 µg/mL, partner 1.71 µg/mL | 0.0722
[6], first compound 0.005 µg/mL, partner 6.4 µg/mL | 0.0381
[6], first compound 0.0075 µg/mL, partner 0.4275 µg/mL | 0.971
[6], first compound 0.0075 µg/mL, partner 0.855 µg/mL | 0.974
[6], first compound 0.0075 µg/mL, partner 1.71 µg/mL | 0.0723
[6], first compound 0.01 µg/mL, partner 6.4 µg/mL | 0.0415
[6], first compound 0.015 µg/mL, partner 0.4275 µg/mL | 0.898
[6], first compound 0.015 µg/mL, partner 0.855 µg/mL | 0.922
[6], first compound 0.015 µg/mL, partner 1.71 µg/mL | 0.089
[6], first compound 0.02 µg/mL, partner 6.4 µg/mL | 0.0317

fitness, [5], one replicate, main component drawn
Conditions | first compound 0.0312 µg/mL | first compound 0.0625 µg/mL | first compound 0.125 µg/mL | first compound 2 µg/mL | first compound 4 µg/mL | first compound 8 µg/mL
partner 0.5 µg/mL | – | – | – | 0.0297 | 0.0204 | 0.0134
partner 1 µg/mL | – | – | – | 0.0435 | 0.031 | 0.0236
partner 1.25 µg/mL | 0.0287 | 0.0387 | 0.0145 | – | – | –
partner 1.6 µg/mL | 0.0362 | 0.0251 | 0.0203 | – | – | –
partner 2 µg/mL | – | – | – | 0.0532 | 0.0341 | 0.0259
partner 2.5 µg/mL | 0.037 | 0.0186 | 0.0151 | – | – | –
partner 3.2 µg/mL | 0.0222 | 0.0273 | 0.0354 | – | – | –
partner 4 µg/mL | – | – | – | 0.0258 | 0.0254 | 0.0138
partner 5 µg/mL | 0.0373 | 0.0148 | 0.0138 | – | – | –
partner 6.4 µg/mL | 0.0438 | 0.0244 | 0.0155 | – | – | –
partner 8 µg/mL | – | – | – | 0.0213 | 0.0075 | 0.0166
partner 16 µg/mL | – | – | – | 0.008 | 0.0061 | 0.0096

COc1c(N2C[C@@H]3CCCN[C@@H]3C2)c(F)cc2c(=O)c(C(=O)O)cn(C3CC3)c12 [Moxifloxacin] + CO[C@@H]1[C@@H](OC(N)=O)[C@@H](O)[C@H](Oc2ccc3c(O)c(NC(=O)c4ccc(O)c(CC=C(C)C)c4)c(=O)oc3c2C)OC1(C)C [Novobiocin]
Conditions | Bliss interaction score
[1] | -0.113
[2] | -0.0346
[3] | 0.0943
[4] | -0.0723

fitness, [5]
Conditions | first compound 0.0312 µg/mL | first compound 0.0625 µg/mL | first compound 0.125 µg/mL | first compound 2 µg/mL | first compound 4 µg/mL | first compound 8 µg/mL
partner 0.0125 µg/mL | – | – | – | 0.0294 | 0.0275 | 0.0124
partner 0.025 µg/mL | – | – | – | 0.016 | 0.0146 | 0.0125
partner 0.05 µg/mL | 0.0425 | 0.0373 | 0.0299 | 0.0168 | 0.0053 | 0.0129
partner 0.1 µg/mL | 0.0335 | 0.0227 | 0.0176 | – | – | –
partner 0.2 µg/mL | 0.0331 | 0.0211 | 0.0159 | – | – | –

fitness, [5], one replicate
Conditions | first compound 0.0312 µg/mL | first compound 0.0625 µg/mL | first compound 0.125 µg/mL
partner 0.125 µg/mL | 0.0427 | 0.0166 | 0.0119
partner 0.25 µg/mL | 0.0377 | 0.0432 | 0.0101
partner 0.5 µg/mL | 0.0342 | 0.0161 | 0.011
